The source of these data is patent US9518976B2, “Methods for identifying or assaying for agents that increase beta-cell proliferation, insulin secretion, insulin sensitivity, glucose tolerance and decrease fat mass” (The Trustees of Columbia University in The City of New York, priority 2006, dated 2016).

Ends that are not written are not given here.

In one data set the test system is Wild type adipocytes. Description: Adiponectin expression in wt adipocytes treated with osteocalcin (real time PCR). It is filed as cell-based, mouse. An excerpt:
FIG. 7. Esp−/− Mice Are a Model of Increased Osteocalcin Bioactivity. (A-G) Comparison between 6-week-old WT, Esp−/, Ocn+/−, and Esp−/−; Ocn+/− mice. (A) Blood glucose levels. (B) Serum insulin levels. (C) Serum adiponectin levels. (D) GTT. (E) ITT. (F) GSIS test. (G) Quantification of the number of Ki67-immunoreactive cells in pancreatic islets. […] (J) Expression of Adiponectin in WT adipocytes cocultured with osteoblasts treated with warfarin or vehicle. (K) Expression of Adiponectin in WT adipocytes cultured in presence of vehicle or of 1 ng/ml of commercially available carboxylated osteocalcin (Immunotopics) or bacterially produced uncarboxylated osteocalcin. (L) Expression of Insulin and Cyclin D1 in WT islets cultured in presence of 0.3 ng/ml of bacterially produced uncarboxylated osteocalcin or vehicle. (M) Metabolic parameters and total serum osteocalcin levels in control and obese patients. (N-O) Quantification of carboxylated osteocalcin (HA-bound osteocalcin) in control and obese patients. In (A)-(C) and (G)-(L): *p<0.05 versus WT (Student's t test); in (D)-(F), °p<0.05 versus WT and *p % 0.001 versus WT (ANOVA followed by post hoc analysis).
FIG. 15. […] Wt adipocytes were treated for 4 hours with recombinant full-length osteocalcin (1-46) or a truncated form (1-36) or vehicle. Adiponectin expression was then quantified by real time PCR.
Primary adipocytes were isolated from epididymal fat pads by collagenase digestion. Briefly, minced adipose tissue was digested by 1 mg/ml collagenase P in KRP Buffer (20 mM HEPES, 120 mM NaCl, 6 mM KCl, 1.2 mM MgSO4, 1 mM CaCl2, 0.6 mM Na2HPO4, 0.4 mM NaH2PO4, 2.5 mM D-glucose, 2% BSA, pH 7.4) for 1 h at 37° C. The isolated cells were washed twice with KRP Buffer before being cultured in αMEM/1% FBS at 37° C. in 5% CO2.
(§1) All gene expression analyses were performed using real time PCR. DNAse I-treated total RNA was converted to cDNA with the SuperScript III kit (Invitrogen). Real-time PCR were performed using the Taq SYBR Green Supermix with ROX (Biorad) on an MX3000 instrument (Stratagene); beta-actin amplification was used as an internal reference for each sample. All primers were from SuperArray.
Experiments were performed to test whether truncated osteocalcin was as effective as full-length uncarboxylated osteocalcin in stimulating adiponectin secretion from mouse adipocytes in vitro. Wild type adipocytes were treated for 4 hours with recombinant full-length osteocalcin (1-46) or a truncated form (1-36) (having a deletion of the […] ten amino acids from the C-terminal end) or vehicle. Adiponectin expression was then quantified by real time PCR. […]
For orientation: Quantitative PCR measures a nucleic acid by following its amplification.

In another data set the test system is beta-cells. Description: Streptozotocin (STZ) injection in WT and Esp−/− mice: survival and blood glucose. In kind it is in vivo, mouse. The conditions noted are these: eight days after injection. The text has this:
FIG. 3. Esp−/− Mice Are Protected from Obesity and Glucose Intolerance. A-F) Food intake per day (A), body weight curve (B), fat pad mass (C), serum triglyceride levels (D), GTT (E), and ITT (F) in 4-month-old WT and Esp−/− mice 3 months after GTG or vehicle injection. (G-I) Body weight curve (G), GTT (H), and ITT (I) in 3 month-old WT and Esp−/− mice fed a high fat diet for 6 weeks. (J and K) Serum insulin levels (J) and pancreatic insulin content (K) in 1-month-old WT and Esp−/− mice 8 days after STZ or vehicle injection. (L and M) Survival of mice (L) and change of blood glucose levels (M) in 1-month-old WT and Esp−/− mice during the 8 days following STZ injection. (N) Urinary glucose assays in 1-month-old WT and Esp−/− mice 8 days after STZ injection. In (A)-(F), (J), and (K): a, WT versus Esp−/−; b, WT+GTG (or STZ) versus WT+vehicle; c, WT+GTG (or STZ) versus Esp−/−+GTG (or STZ); d, Esp−/−+GTG (or STZ) versus Esp−/−+vehicle. In (G)-(I) and (M), *p<0.05 WT versus Esp−/−. In (A), (C), (D), (J), and (K), Student's t test, p<0.05 for a-d; in (B), (E)-(I), (L), and (M), ANOVA followed by post hoc analysis when number of groups >2, p % 0.001 for a-d.
For glucose tolerance test (GTT), glucose (2 g/kg body weight (BW)) was injected intraperitoneally (IP) after an overnight fast and blood glucose was monitored using blood glucose strips and the Accu-Check glucometer (Roche) at indicated times. For glucose stimulated insulin secretion test (GSIS), glucose (3 g/kg BW) was injected IP after an overnight fast; sera were collected from tails and insulin measured as described (Mauvais-Jarvis et al., 2000). For insulin tolerance test (ITT), mice were fasted for six hours, injected IP with insulin (0.2 U/kg BW) and blood glucose levels were measured at indicated times as described (Mauvais-Jarvis et al., 2002). ITT data are presented as percentage of initial blood glucose concentration. Gold thioglucose (600 mg/kg BW, USP) was injected IP after an overnight fast, mice were sacrificed 3 months later for analysis. Streptozotocin ([…] single injection, Sigma) was injected IP and blood glucose measured as described above every 2 days thereafter. After 8 days, pancreases were isolated to measure insulin content as previously described (Mauvais-Jarvis et al., 2000). Food intake was measured using metabolic cages as the daily change of food weight. Energy expenditure was measured using metabolic cages connected to a calorimeter (Columbus Instrument). Heat values (Kcal/Hr) were recorded over 2 days and reported to each mouse BW.
Whether the increase in insulin sensitivity could protect Esp−/− mice from pancreatic beta-cell failure was determined. […] Unlike STZ-treated WT mice, glucose could not be detected in urine of STZ-injected Esp−/− mice (FIG. 3N).

The target in a further data set is T1, gamma carboxylase (Homo sapiens, UniProt P38435).
T1 sequence (P38435 1-758): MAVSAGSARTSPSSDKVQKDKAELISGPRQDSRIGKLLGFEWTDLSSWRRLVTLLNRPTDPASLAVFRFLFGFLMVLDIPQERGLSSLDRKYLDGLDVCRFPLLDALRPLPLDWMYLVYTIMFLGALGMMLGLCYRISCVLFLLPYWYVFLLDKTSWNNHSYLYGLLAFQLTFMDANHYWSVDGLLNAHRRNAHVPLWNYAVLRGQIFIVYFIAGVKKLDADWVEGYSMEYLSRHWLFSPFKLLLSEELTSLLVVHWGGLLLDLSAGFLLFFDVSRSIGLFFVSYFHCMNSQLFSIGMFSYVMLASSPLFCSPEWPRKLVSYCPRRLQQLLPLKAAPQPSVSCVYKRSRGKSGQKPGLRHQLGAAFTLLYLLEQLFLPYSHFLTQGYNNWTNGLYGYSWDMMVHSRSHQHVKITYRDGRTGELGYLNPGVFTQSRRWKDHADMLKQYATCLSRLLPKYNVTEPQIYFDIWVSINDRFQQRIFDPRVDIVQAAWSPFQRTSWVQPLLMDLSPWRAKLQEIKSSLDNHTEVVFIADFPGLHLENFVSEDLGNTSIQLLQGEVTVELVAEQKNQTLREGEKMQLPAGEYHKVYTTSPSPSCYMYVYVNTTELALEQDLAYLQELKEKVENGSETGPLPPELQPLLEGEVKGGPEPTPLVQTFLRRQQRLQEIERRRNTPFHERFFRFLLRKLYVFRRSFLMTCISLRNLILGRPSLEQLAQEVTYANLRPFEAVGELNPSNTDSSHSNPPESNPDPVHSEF
The settings on record: thiol-specific inhibitors; cited from earlier work.

In the next data set the test system is wild type osteoblasts. Description: Isoproterenol on wild type osteoblasts: mRNA levels by quantitative PCR. It is filed as cell-based, mouse. How it is done:
as §1
It was discovered that sympathetic nervous system (SNS) activity positively regulates Esp expression in osteoblasts. […] Thus, decreasing sympathetic activity should lead to a decrease in Esp expression and thereby to an increase in the undercarboxylated, active form of osteocalcin.

For data set [1] the following is noted: osteoporotic patients, cited from earlier work.
The conditions of data set [2]: read-out: Kd to hydroxyapatite; cited from earlier work.

Broadly, the Kd is the equilibrium constant for the complex coming apart.

With “1-36 fragment of uncarboxylated osteocalcin: Recombinant truncated mouse osteocalcin (1-36), ten amino acids deleted from the C-terminal end (YLGASVPSPDPLEPTREQCELNPACDELSDQYGLKT; not fully specified; ends and bridges not checked; UniProt P86546 50-85, looked up, fragment)”, the Adiponectin expression increase in the data set on Wild type adipocytes (wild type adipocytes treated for 4 hours, real time PCR, vs vehicle) was approximately 1.8 fold. Also, the “potency in inducing adiponectin expression in vitro” value in the data set on Wild type adipocytes (wt adipocytes, 4 hours (FIG. 15 legend)) is reported as “as potent as native osteocalcin”.

With `CN(N=O)C(=O)N[C@H]1C(O)O[C@H](CO)[C@@H](O)[C@@H]1O` (mixture of isomers) [STZ, streptozotocin], in the data set on beta-cells (STZ-treated Esp−/− mice), the “blood glucose level of surviving mice” value is not above 250 mg/dL and the mice died entry is listed as “one”. Moreover, in the data set on beta-cells (STZ-treated WT mice), the mice died was 3 of the 7 and the “serum glucose levels of surviving mice” value is listed as “above 500 mg/dl”. For the molecule `CCN1C(=O)C=CC1=O` [N-ethylmaleimide (NEM), N-ethylmaleimide], the “inhibition of gamma carboxylase” value on gamma carboxylase was “inhibited”.

As for `CC(C)NCC(O)c1ccc(O)c(O)c1` (centres unmarked) [isoproterenol], in the data set on wild type osteoblasts, the “expression of gamma-carboxylase (ggcx)” value was “did not increase”, the expression of osteocalcin result is “did not increase” and the expression of vkor entry was “did not increase”. In addition, the “increase of Esp expression” value in the data set on wild type osteoblasts (at 8 hours) is “remains steady”. The “increase of Esp expression” value with wild type osteoblasts (by 4 hours) was “about 80%”. For `O=C([O-])c1cc[c]([Hg][OH])cc1` [p-hydroxymurcuribenzoate (pHMB), p-hydroxymurcuribenzoate], the “inhibition of gamma carboxylase” value at gamma carboxylase is “inhibited”. On to Vitamin D, for which the “effect on undercarboxylated osteocalcin” value in data set [1] (alone or together with Vitamin K) is listed as “no significant effect”. On to Vitamin K, for which the “percentage mean decrease in undercarboxylated osteocalcin” value in data set [1] (four weeks of treatment, vs controls without Vitamin K) is reported as 85%.

With “carboxylated osteocalcin: commercially available carboxylated osteocalcin (Immunotopics) (YLYQWLGAPVPYPDPLEPRREVCELNPDCDELADHIGFQEAYRRFYGPV; ends and bridges not checked; also: carboxylated (Gla) residues, sites not given here; UniProt P02818 52-100, looked up) [reference compound]”, in the data set with Wild type adipocytes (WT adipocytes, 1 ng/ml (FIG. 7K)), the “induction of adiponectin expression” value is on record as “failed to induce”.

B1: Osteocalcin: normal (Gla-containing) osteocalcin, small vitamin K-dependent calcium binding protein; literature data (protein, listed as Homo sapiens)
chain: MRALTLLALLALAALCIAGQAGAKPSGAESSKGAAFVSKQEGSEVVKRPRRYLYQWLGAPVPYPDPLEPRREVCELNPDCDELADHIGFQEAYRRFYGPV
As to B1, in data set [2], the equilibrium dissociation constant (Kd) is approximately 100 nM.
